Test [1] addresses T1, Alpha-hemolysin (Staphylococcus aureus) (UniProt P09616).
T1 sequence (whole entry): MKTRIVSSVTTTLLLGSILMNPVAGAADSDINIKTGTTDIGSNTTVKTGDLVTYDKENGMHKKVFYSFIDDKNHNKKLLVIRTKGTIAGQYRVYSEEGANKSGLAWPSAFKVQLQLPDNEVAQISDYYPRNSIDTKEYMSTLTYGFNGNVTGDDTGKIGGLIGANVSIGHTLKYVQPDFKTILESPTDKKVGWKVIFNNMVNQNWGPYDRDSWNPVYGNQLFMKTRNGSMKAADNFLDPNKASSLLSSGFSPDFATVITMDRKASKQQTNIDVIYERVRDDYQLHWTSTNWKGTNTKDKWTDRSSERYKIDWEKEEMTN
In words: Inhibition of deoxycholate-induced wild type Staphylococcus aureus alpha-hemolysin oligomerization at 16 ug/ml by SDS-PAGE analysis.

Test [2] concerns the target T1, Alpha-hemolysin (Staphylococcus aureus). Put plainly: Binding affinity to wild type Staphylococcus aureus alpha-hemolysin by fluorescence quenching method.
For test [3], the system named is Staphylococcus aureus. In words: Antimicrobial activity against Staphylococcus aureus at 1024 ug/ml by broth microdilution method. It counts as functional, organism-based. A general note: Broth dilution looks for growth in wells or tubes with falling amounts of substance.
The test system of test [4] is Staphylococcus aureus. In words: Inhibition of alpha-hemolysin protein expression in Staphylococcus aureus 8325-4 at 4 to 256 ug/ml by Western blot analysis. The test is classed as functional, organism-based. In general terms: A western blot detects proteins with antibodies after separation by electrophoresis.

Active and inactive are the calls of the source. The rule behind the calls is not given here.

For `Cc1c(O)c(C)c2c(c1O)C(=O)CC(c1ccc(O)c(O)c1)O2` (centres undefined), the inhibition entry in test [1] is “Active”. The outcome in test [2] was Active. For the same compound, the result in the test with Staphylococcus aureus [3] was inactive. The inhibition result in the test on Staphylococcus aureus [4] was “inactive”.

Source of the values: ChEMBL document CHEMBL2331339.
